According to patent publication US20190110476A1, “NOVEL ISOTHIAZOLAMIDES, PROCESSES FOR THEIR PREPARATION AND THEIR USE AS FUNGICIDES” (priority 2014, published 2019):
Marks after values point to notes of the source that are not given here.

Assay: Measurement of LogP values by HPLC on reversed phase columns (EEC directive 79/831 Annex V.A8)
Type: physicochemical
Conditions: not given
Procedure, shortened: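 LogP measured by reversed-phase HPLC following EEC directive 79/831 Annex V.A8. Lambda-max taken from UV spectra at 200–400 nm at chromatographic peak maxima; diastereoisomer values listed separately.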
In the case of COc1ccc(CNc2nsc(C(=O)NCc3cc(OC)c(OC)c(OC)c3)c2Cl)cc1 [I-1344], the LogP was 3.08[a].
With COc1ccc(CNc2nsc(C(=O)O)c2Cl)cc1 [E-VIII-002] the “LogP [a]” value was 2.21^[a].
With Cc1c(N)nsc1C(=O)NCc1ccc(C(F)(F)F)cc1F [I-104] the LogP was 2.18[a].
For CCc1ccccc1C(C)N(C(=O)c1snc(N)c1Cl)C1CC1 (stereo not shown) [I-887], the LogP was 3.37[a].
For Nc1nsc(C(=O)NC2CCCCC2c2ccccc2)c1Cl (stereo not shown) [I-287], the LogP was 3.02[a].
With Cc1ccc(C(C)(C)C)c(CN(C(=O)c2snc(Cl)c2Cl)C2CC2)c1 [E-II-015] the “LogP [a]” value was 5.65^[a].
For O=CNc1cc(C(=O)NCc2ccc(F)cc2F)sn1 [I-430], the LogP was 1.79[a].
For Cc1c(N)nsc1C(=O)NCc1ccccc1C(F)F [I-157], the LogP was 1.74[a].
For O=C(NCC1CCCCC1)c1snc(N(Cc2ccccc2)Cc2ccccc2)c1-c1ccc(F)cc1 [I-318], the LogP was 6.27[a].
For CC1CCCCC1NC(=O)c1snc(N)c1I (stereo not shown) [I-1564], the LogP was 2.14[a].
For COc1ccc(CNc2nsc(C(=O)OC(C)C)c2Cl)cc1 [E-VII-004], the “LogP [a]” value was 4.36^[a].
With COc1ccc(CNc2nsc(C(=O)Nc3cccc(F)c3)c2Cl)cc1 [I-861] the LogP was 3.85[a].
With COc1ccc(CNc2nsc(C(=O)N[C@@H]3CCCC[C@@H]3C)c2Cl)cc1 (relative stereo) [I-1550] the LogP was 4.18[a].
With Cc1ccc(F)c(CN(C(=O)c2cc(N(Cc3ccccc3)Cc3ccccc3)ns2)C2CC2)c1 [I-990] the LogP was 5.56[a].
In the case of Nc1nsc(C(=O)NCC2CC=CCC2)c1Cl (stereo not shown) [I-085], the LogP was 2.14[a].
In the case of COc1ccc(CNc2nsc(C(=O)Nc3ccc(F)cc3)c2Cl)cc1 [I-858], the LogP was 3.76[a].
With COc1cccc(CNC(=O)c2snc(N)c2Cl)c1F [I-325] the LogP was 1.91[a].
With C[C@@H]1CCCC[C@H]1NC(=O)c1snc(N)c1Br (relative stereo) [I-838] the LogP was 2.34[a].
In the case of Nc1nsc(C(=O)N2CCc3ccccc32)c1Cl [II-029], the “LogP [a]” value was 2.08 and the “LogP [b]” value was 2.03.
With CCC(c1cc(Cl)cc(Cl)c1)N(C(=O)c1snc(N)c1Cl)C1CC1 (stereo not shown) [I-955] the LogP was 4.17[a].
With Nc1nsc(C(=O)NCC2CCC(C(F)(F)F)CC2)c1Br (stereo not shown) [I-840] the LogP was 2.68[a].
For CC(NC(=O)c1snc(Cl)c1Cl)C1CCCO1 (stereo not shown) [E-II-032], the “LogP [a]” value was 2.72 and the “LogP [b]” value was 2.69.
With Cc1ccc(C2(C)CC2)c(CNC(=O)c2snc(N)c2Cl)c1 [I-414] the LogP was 3.29[a].
For Nc1nsc(C(=O)NCC2CCCC2O)c1Cl (single isomer, unassigned) [I-773], the LogP was 0.88[a].
For Nc1cc(C(=O)NCc2ccc(Cl)cc2Cl)sn1 [I-306], the LogP was 2.11[a].
In the case of Cc1ccc(S(C)=Nc2nsc(C(=O)NCc3c(F)cc(F)cc3F)c2F)cc1 (stereo not shown) [II-080], the “LogP [a]” value was 2.63^[a].
With COc1ccc(CNc2nsc(C(=O)N(C3CC3)C(C)c3ccccc3C(F)(F)F)c2Cl)cc1 (stereo not shown) [I-949] the LogP was 4.83[a].
In the case of Nc1cc(C(=O)N(Cc2cc(Cl)ccc2Br)C2CC2)sn1 [I-1001], the LogP was 2.84[a].
For CS(C)=Nc1nsc(C(=O)NCc2ccc(F)cc2F)c1F [II-057], the “LogP [a]” value was 1.30^[a].
For CC1(C)CC(CNC(=O)c2snc(N)c2Br)C1 [I-842], the LogP was 2.60[a].
For Nc1nsc(C(=O)NCc2ccc(Cl)nc2)c1Cl [I-122], the LogP was 1.31[a].
With Nc1nsc(C(=O)NCc2ccc(Oc3ccc(F)cc3)cc2)c1Cl [I-238] the LogP was 3.00[a].
For Nc1nsc(C(=O)NCc2ccc(Oc3ccccc3)cc2)c1Cl [I-227], the LogP was 2.94[a].
In the case of CC(c1ccccc1C(F)(F)F)N(C(=O)c1snc(N)c1Cl)C1CC1 (stereo not shown) [I-957], the LogP was 3.13[a].
In the case of COc1ccc(CNc2nsc(C(=O)NC(C)(C)c3cccc(C(F)(F)F)c3)c2Cl)cc1 [I-1232], the LogP was 4.44[a].
For Nc1nsc(C(=O)NCc2cc(F)c(F)c(F)c2)c1Cl [I-131], the LogP was 2.13[a].
In the case of CS(C)=Nc1nsc(C(=O)NCC2CCCO2)c1F (stereo not shown) [II-070], the “LogP [a]” value was 0.44^[a].
With Nc1nsc(C(=O)NOc2ccccc2)c1Cl [I-1033] the LogP was 1.53[a].
With O=C(O)CCNc1nsc(C(=O)NCC2CCCCC2)c1Cl [I-721] the LogP was 2.42[a].
With C[C@H](NC(=O)c1snc(N(S(C)(=O)=O)S(C)(=O)=O)c1Cl)C1CCCCC1 [I-103] the LogP was 3.76[a].
With Nc1nsc(C(=O)NCc2c(F)cccc2F)c1Cl [I-128] the LogP was 1.81[a].
With CCCCn1cc(CNC(=O)c2snc(NCc3ccc(OC)cc3)c2Cl)c(C)n1 [I-1260] the LogP was 3.21[a].
In the case of CC(=O)N(C(C)=O)c1nsc(C(=O)NCc2ccc(Cl)cc2)c1Cl [I-571], the LogP was 2.99[a].
With Nc1nsc(C(=O)NCC2CCC(C(F)(F)F)CC2)c1Cl (stereo not shown) [I-141] the LogP was 2.71[a].
With CC(=O)Nc1nsc(C(=O)NCc2ccc(C#N)cc2)c1Cl [I-847] the LogP was 1.24[a].
With COc1ccc(CNc2nsc(C(=O)N(C3CC3)C(C)c3ccccc3)c2Cl)cc1 (stereo not shown) [I-873] the LogP was 4.17[a].
With O=C(NCc1c(F)cc(F)cc1F)c1snc(N=S2CCCC2)c1F [II-081] the “LogP [a]” value was 1.39^[a].
With CC(C)(C)OC(=O)Nc1nsc(C(=O)NCC2CCCCC2Cl)c1Cl (stereo not shown) [I-1581] the LogP was 3.56[a].
With COc1ccc(CNc2nsc(C(=O)NCC3(C)CCC(C)CC3)c2Cl)cc1 (stereo not shown) [I-825] the LogP was 4.84[a].
For Nc1nsc(C(=O)NCc2ccccc2)c1Cl [I-004], the LogP was 1.69[a].
In the case of Nc1nsc(C(=S)NCc2ccc(F)cc2F)c1Cl [I-1016], the LogP was 2.74[a].
In the case of Cc1ccc(NC(=O)c2snc(N)c2Br)cc1Cl [I-965], the LogP was 2.88[a].
In the case of CCC(C)C(C)N(C(=O)c1snc(N)c1Cl)C1CC1 (stereo not shown) [I-901], the LogP was 3.00[a].
In the case of COc1ccc(CNc2nsc(C(=O)NCc3cccnc3OC)c2Cl)cc1 [I-1235], the LogP was 3.13[a].
In the case of Nc1cc(C(=O)N(Cc2c(Cl)cccc2Cl)C2CC2)sn1 [I-968], the LogP was 2.53[a].
For CC1(C)CC1N(Cc1ccc(Cl)cc1Cl)C(=O)c1snc(N)c1Cl (stereo not shown) [I-214], the LogP was 4.12[a].
For COc1ccc(CNc2nsc(C(=O)N(c3ccc(F)cc3)C3CC3)c2Cl)cc1 [I-922], the LogP was 3.85[a].
In the case of CC(C)N(Cc1ccc(Cl)cc1Cl)C(=O)c1cc(N)ns1 [I-937], the LogP was 3.08[a].
In the case of CCOC(=O)C1CCC(NC(=O)c2snc(N)c2Cl)CC1 (stereo not shown) [I-843], the LogP was 1.92[a].
For CON(Cc1ccc(F)cc1F)C(=O)c1snc(N)c1Cl [I-542], the LogP was 2.50[a].
In the case of CN1C2CCC1CC(NC(=O)c1snc(N)c1Cl)C2 (stereo not shown) [I-607], the LogP was −0.20[c].
In the case of COc1ccc(CNc2nsc(C(=O)NCC3CCC(C)CC3)c2Cl)cc1 (stereo not shown) [I-675], the LogP was 4.56[a].
For Nc1nsc(C(=O)NCCc2ccccc2)c1-c1ccc(F)cc1 [I-994], the LogP was 2.59[a].
With COc1ccc(CNc2nsc(C(=O)NCc3cccc(OC)c3F)c2Cl)cc1 [I-236] the LogP was 3.46[a].
With CS(C)=Nc1nsc(C(=O)NCC2CCCCC2)c1F [II-053] the “LogP [a]” value was 1.53^[a].
In the case of O=C(NCC1CCCCC1)c1snc(N(Cc2ccccc2)Cc2ccccc2)c1C(F)F [I-394], the LogP was 5.88[a].
With Cc1ccc(F)c(CN(C(=O)c2cc(NCc3ccccc3)ns2)C2CC2)c1 [I-996] the LogP was 4.01[a].
For Nc1nsc(C(=O)NCc2cc(F)cc(F)c2F)c1Cl [I-130], the LogP was 2.03[a].
In the case of COc1ccc(CNc2nsc(C(=O)NCc3ccc(C4CC4)cc3)c2C2CC2)cc1 [I-600], the LogP was 3.94[a].
For COc1ccc(CNc2nsc(C(=O)NCc3ccc(C#N)cc3)c2Cl)cc1 [I-1555], the LogP was 3.23[a].
For CC1OC(C)(C)c2cccc(NC(=O)c3snc(N)c3Cl)c21 (stereo not shown) [I-879], the LogP was 2.28[a].
For O=C(NCC1CCCO1)c1snc(Cl)c1Cl (stereo not shown) [E-II-006], the “LogP [a]” value was 2.20^[a].
For COc1ccc(CNc2nsc(C(=O)NC3C(C(C)C)CCCC3C(C)C)c2Cl)cc1 (stereo not shown) [I-1219], the LogP was 6.32[a].
With O=C(NCC1CCCCC1)c1snc(N=S2CCCC2)c1Cl [II-033] the “LogP [a]” value was 2.15^[a].
For COc1ccc(CNc2nsc(C(=O)NCc3cccc(C)n3)c2Cl)cc1 [I-1345], the LogP was 1.78[a].
In the case of COc1ccc(CNc2nsc(C(=O)NCc3cn(C(C)C)nc3C)c2Cl)cc1 [I-1257], the LogP was 2.82[a].
For COc1ccc(CNc2nsc(C(=O)NCCCn3ccnc3)c2Cl)cc1 [I-1244], the LogP was 1.36[a].
For O=C(Nc1ccccc1)c1snc(N=C(c2ccccc2)c2ccccc2)c1Cl [II-107], the “LogP [a]” value was 4.62^[a].
For COc1ccc(CNc2nsc(C(=O)N(Cc3ccc(Cl)cc3Cl)C(C)C)c2Cl)cc1 [I-944], the LogP was 5.39[a].
In the case of O=C(NCc1cc(F)cc(F)c1)c1cc(N(Cc2ccccc2)Cc2ccccc2)ns1 [I-285], the LogP was 4.53[a].
For COc1ccc(CNc2nsc(C(=O)NC(C#N)c3ccc(F)c(F)c3)c2Cl)cc1 (stereo not shown) [I-1326], the LogP was 3.61[a].
In the case of Nc1nsc(C(=O)NCC2CCCCC2C(F)(F)F)c1Cl (stereo not shown) [I-1566], the LogP was 2.63[a].
For Nc1nsc(C(=O)NCC2CCCCC2)c1O [I-797], the LogP was 2.12[a].
For COc1ccc(CNC(=O)c2cc(N)ns2)cc1 [I-052], the LogP was 1.28[a].
With COc1c(N)nsc1C(=O)NCc1c(F)cc(F)cc1F [I-732] the LogP was 1.82[a].
For Cc1c(N)nsc1C(=O)NCc1c(F)cccc1F [I-146], the LogP was 1.49[a].
For O=C(NCCc1ncc(C(F)(F)F)cc1Cl)c1cc(N(Cc2ccccc2)Cc2ccccc2)ns1 [I-904], the LogP was 5.03[a].
With Cc1ccc(F)c(CN(C(=O)c2cc(N)ns2)C2CC2)c1 [I-995] the LogP was 2.44[a].
In the case of CN1C2CCC1CC(NC(=O)c1snc(Cl)c1Cl)C2 (stereo not shown) [E-II-018], the “LogP [a]” value was 0.66^[a].
For Nc1nsc(C(=O)Nc2ccc(F)cc2F)c1Cl [I-864], the LogP was 2.07[a].
In the case of Nc1nsc(C(=O)NCc2ccccc2Br)c1Cl [I-1553], the LogP was 1.88[a].
In the case of Cc1ccccc1NC(=O)c1snc(N)c1Cl [I-914], the LogP was 2.08[a].
In the case of COc1ccc(CNC(=O)c2snc(N)c2Cl)cc1O [I-1568], the LogP was 1.03[a].

Same assay, conditions: HPLC LC-UV, acidic range, 0.1% formic acid in water and acetonitrile as eluent
Work on O=Cc1c(N(Cc2ccccc2)Cc2ccccc2)nsc1C(=O)O [E-VIII-006, 3-(dibenzylamino)-4-formyl-1,2-thiazole-5-carboxylic acid] yielded a chromatographic logP of 3.21.
O=C(O)c1cc(N(Cc2ccccc2)Cc2ccccc2)ns1 [E-VIII-003, 3-(dibenzylamino)-1,2-thiazole-5-carboxylic acid] showed a chromatographic logP of 3.35.
